# Experiments:
# P. falciparum 3D7 = assay: Antiplasmodial SYBR Green I proliferation assay, P. falciparum 3D7; format: cell-based, Plasmodium falciparum; settings: Plasmodium falciparum, 3D7, 96 h, 96 h; values in brackets 95% confidence intervals; read-out: IC50 Pf3D7
# Excerpt: Antiplasmodial activity against P. falciparum 3D7 (A, C and E) and P. falciparum Dd2 (B, D, F). […] Curves were plotted using non-linear regression based on means from three independent experiments measured in triplicate. Error bars indicate standard deviation, whose values are provided in the respective table.
# Plasmodium falciparum culture and antiplasmodial activity. […] Development, parasitaemia, and morphology of parasites were monitored by light microscopy of thin blood smears stained according to the Romanowsky method (Panótico Rápido staining kit; Laborclin, Pinhais, Paraná, Brazil). […] Fresh 0^+ blood was generously provided by “Hospital Novo Atibaia” (Atibaia, SP, Brazil), and approved by the ethics committee at ICB-USP. The antiplasmodial effect of all compounds was validated against P. falciparum 3D7 strain conducting SYBR Green I (Invitrogen) drug assays as previously reported[30],[46] as a modification of the original procedure. […] Parasite proliferation was measured by the DNA load via fluorescence, using 100 μL of a lysis buffer with SYBR Green I (0.02% v/v) and incubated for 1 h at room temperature in the dark. […] Focal and gain adjustment was performed using the non-treated controls (highest expected fluorescence signal). Data was acquired via the CLARIOstar (V5.20) and MARS software, manually scaled to 0–100%, and plotted using GraphPad Prism (v9.5.2 for Windows, GraphPad Software, La Jolla California USA, www.graphpad.com). Non-treated parasites, the highest solvent concentration on parasites, CQ on parasites, and the highest drug concentration in the medium were used as controls for maximal growth, solvent control, positive biological control, and native drug fluorescence, respectively.
# HepG2 cells = assay: Cytotoxicity in human HepG2 cells (WST-1); format: cell-based; settings: Homo sapiens, HepG2; 48 h, WST-1; read-out: IC50 HepG2
# Method: Cytotoxicity in human HepG2 cells.[47] […] Cytotoxic effects of compounds were assessed using the cell proliferation reagent WST-1 (Roche; CELLPRO-RO) in a 96-well plate-based screening assay. HepG2 cells were seeded at 10^4 cells/well (100 μL) in 96-well flat-bottom plates (Sarstedt) the night before the experiment to allow attachment of cells. The next day, two-fold serial dilutions of compounds were prepared in fresh medium in an extra plate, and the medium of cells was replaced by the medium containing the compound dilutions. Non-treated cells (max. proliferation), cells treated with the maximal solvent concentration (DMSO; solvent control), and medium with the maximal compound concentration (native absorbance) used as controls. […] Subsequently, 10 μL WST-1 was added to each well and plates were incubated for additional 4 h under standard conditions. WST-1 is a tetrazolium salt and is metabolised by the mitochondrial succinate-tetrazolium-reductase system of living cells and forms formazan, whose absorbance was measured at 450 nm. Absorbance at 630 nm was assessed to check for protein and precipitation background. Both measurements were acquired via the CLARIOstar (V5.20) and MARS software, manually scaled to 0–100%, and plotted with GraphPad Prism (version 9.5.2 for Windows, GraphPad Software, La Jolla California USA).
# human HDAC1 = target: T1, human HDAC1 (Homo sapiens, UniProt Q13547); assay: In vitro HDAC enzymatic assay, HDAC1; format: biochemical; settings: mean ± SD
# T1 construct: purchased ENZO Life Sciences AG (Lausen, CH)
# Method: (§1) In vitro HDAC enzymatic assays. Recombinant human HDAC1 and HDAC6 were purchased from ENZO Life Sciences AG (Lausen, CH) whereas HDAC8 was produced as described before. In vitro testing of the inhibitors in an enzymatic assay was carried out as described in previous publications[32],[33]. For HDAC1 a fluorogenic peptide derived from p53 (Ac-RHKK(Acetyl)-AMC) was used. For HDAC6, the substrate (Abz-SRGGK(thio-TFA)FFRR-NH2) was used as described before.
# human HDAC6 = target: T2, human HDAC6 (Homo sapiens, UniProt Q9UBN7); assay: In vitro HDAC enzymatic assay, HDAC6; format: biochemical; settings: for IC50: mean ± SD; for HDAC1/6 SI: ratio HsHDAC1 IC50/HsHDAC6 IC50
# T2 construct: purchased ENZO Life Sciences AG (Lausen, CH)
# T2 sequence (Q9UBN7 1-1215): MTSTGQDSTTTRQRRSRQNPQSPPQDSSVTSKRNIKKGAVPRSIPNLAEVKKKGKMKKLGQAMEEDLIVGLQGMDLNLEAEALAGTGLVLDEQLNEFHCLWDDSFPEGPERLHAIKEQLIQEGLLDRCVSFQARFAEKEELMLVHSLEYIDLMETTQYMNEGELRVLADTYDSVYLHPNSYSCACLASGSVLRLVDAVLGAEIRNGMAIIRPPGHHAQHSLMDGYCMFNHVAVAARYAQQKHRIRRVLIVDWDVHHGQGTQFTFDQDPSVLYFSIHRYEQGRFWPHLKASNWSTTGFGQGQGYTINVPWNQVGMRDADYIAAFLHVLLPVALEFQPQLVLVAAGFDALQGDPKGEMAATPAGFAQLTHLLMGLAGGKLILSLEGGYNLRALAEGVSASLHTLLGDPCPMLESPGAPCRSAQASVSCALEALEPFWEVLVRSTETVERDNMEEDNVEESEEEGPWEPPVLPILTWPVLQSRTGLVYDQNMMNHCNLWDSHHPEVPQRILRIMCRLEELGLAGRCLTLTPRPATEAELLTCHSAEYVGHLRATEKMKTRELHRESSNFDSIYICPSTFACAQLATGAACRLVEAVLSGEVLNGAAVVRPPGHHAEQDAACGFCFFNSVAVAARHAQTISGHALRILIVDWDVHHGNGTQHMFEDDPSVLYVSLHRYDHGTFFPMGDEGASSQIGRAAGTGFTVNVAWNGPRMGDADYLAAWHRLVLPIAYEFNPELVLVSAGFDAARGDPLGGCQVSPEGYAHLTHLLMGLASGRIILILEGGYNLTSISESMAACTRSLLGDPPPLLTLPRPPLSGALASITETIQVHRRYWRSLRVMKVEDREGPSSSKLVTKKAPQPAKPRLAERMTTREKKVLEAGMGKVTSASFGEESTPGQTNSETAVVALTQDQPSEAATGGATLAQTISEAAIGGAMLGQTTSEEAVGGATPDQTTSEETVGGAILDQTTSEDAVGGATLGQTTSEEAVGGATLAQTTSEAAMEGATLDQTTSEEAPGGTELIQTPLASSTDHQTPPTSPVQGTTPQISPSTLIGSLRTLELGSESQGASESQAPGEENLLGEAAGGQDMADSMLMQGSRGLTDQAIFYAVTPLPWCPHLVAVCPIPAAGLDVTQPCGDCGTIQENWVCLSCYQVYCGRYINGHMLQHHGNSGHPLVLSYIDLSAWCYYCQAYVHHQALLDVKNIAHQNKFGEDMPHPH
# Method: as §1
# HDAC8 = target: T3, HDAC8 (Homo sapiens, UniProt Q9BY41); assay: In vitro HDAC enzymatic assay, HDAC8; format: biochemical; settings: mean ± SD
# T3 construct: made in house
# T3 sequence (Q9BY41 1-377): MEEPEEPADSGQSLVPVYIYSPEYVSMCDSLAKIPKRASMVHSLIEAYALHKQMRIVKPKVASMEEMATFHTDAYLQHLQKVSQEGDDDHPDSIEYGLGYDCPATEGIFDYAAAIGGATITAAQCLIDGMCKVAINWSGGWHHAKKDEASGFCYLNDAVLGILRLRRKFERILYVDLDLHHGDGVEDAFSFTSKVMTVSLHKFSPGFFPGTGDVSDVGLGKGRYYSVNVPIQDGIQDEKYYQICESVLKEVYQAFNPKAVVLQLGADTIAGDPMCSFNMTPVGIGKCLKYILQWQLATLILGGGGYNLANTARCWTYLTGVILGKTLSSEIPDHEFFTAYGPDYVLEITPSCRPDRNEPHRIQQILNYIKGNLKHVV
# Method: as §1
# Jurkat = tested on: Jurkat; parameters: method as in PMID 33668008; settings: Fig. 1A; cited from earlier work
# Namalwa = tested on: Namalwa; parameters: method as in PMID 33668008; settings: Fig. 1A; cited from earlier work
# [1] = parameters: method as in PMID 33046062; settings: cited from earlier work
# P. falciparum culture = tested on: P. falciparum culture; parameters: method as in PMID 33046062; settings: cited from earlier work
# CYP1A2 = target: T4, CYP1A2 (Homo sapiens, UniProt P05177); assay: CYP450 inhibition in human liver microsomes, 1A2; format: in vitro ADME; settings: 10 µM
# T4 construct: 10 μM compound was incubated with human liver microsomes and selective marker substrates; from tissue; host or cells: human liver microsomes
# T4 sequence (P05177 1-516): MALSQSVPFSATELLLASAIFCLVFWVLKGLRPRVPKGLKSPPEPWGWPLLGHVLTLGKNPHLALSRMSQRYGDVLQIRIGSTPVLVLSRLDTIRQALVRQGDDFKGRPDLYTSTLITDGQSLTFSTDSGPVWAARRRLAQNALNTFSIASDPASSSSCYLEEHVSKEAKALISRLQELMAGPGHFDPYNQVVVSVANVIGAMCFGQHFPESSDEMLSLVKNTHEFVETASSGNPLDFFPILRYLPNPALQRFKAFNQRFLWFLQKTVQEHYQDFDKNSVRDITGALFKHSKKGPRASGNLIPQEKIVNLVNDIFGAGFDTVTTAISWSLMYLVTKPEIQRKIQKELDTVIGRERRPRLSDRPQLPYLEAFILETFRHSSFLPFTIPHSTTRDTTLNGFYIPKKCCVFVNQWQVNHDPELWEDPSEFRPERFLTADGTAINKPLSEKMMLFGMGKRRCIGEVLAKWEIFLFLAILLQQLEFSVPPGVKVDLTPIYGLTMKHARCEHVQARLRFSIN
# CYP450 2C9 = target: T5, CYP450 2C9 (Homo sapiens, UniProt P11712); assay: CYP450 inhibition in human liver microsomes, 2C9; format: in vitro ADME; settings: 10 µM
# T5 construct: 10 μM compound was incubated with human liver microsomes and selective marker substrates; from tissue; host or cells: human liver microsomes
# CYP450 2D6 = target: T6, CYP450 2D6 (Homo sapiens, UniProt P10635); assay: CYP450 inhibition in human liver microsomes, 2D6; format: in vitro ADME; settings: 10 µM
# T6 construct: 10 μM compound was incubated with human liver microsomes and selective marker substrates; from tissue; host or cells: human liver microsomes
# CYP450 3A4 = CYP450 3A4 (Homo sapiens, UniProt P08684); assay: CYP450 inhibition in human liver microsomes, 3A4
# Method: DMPK evaluation. […] At 0, 5, 10, 20, 40, and 60 min time points, aliquots were removed and acetonitrile was added to quench the reactions and precipitate the proteins. […] After a 10 min incubation, the reaction was terminated and the per cent inhibition was determined.
# T1 sequence (Q13547 whole entry): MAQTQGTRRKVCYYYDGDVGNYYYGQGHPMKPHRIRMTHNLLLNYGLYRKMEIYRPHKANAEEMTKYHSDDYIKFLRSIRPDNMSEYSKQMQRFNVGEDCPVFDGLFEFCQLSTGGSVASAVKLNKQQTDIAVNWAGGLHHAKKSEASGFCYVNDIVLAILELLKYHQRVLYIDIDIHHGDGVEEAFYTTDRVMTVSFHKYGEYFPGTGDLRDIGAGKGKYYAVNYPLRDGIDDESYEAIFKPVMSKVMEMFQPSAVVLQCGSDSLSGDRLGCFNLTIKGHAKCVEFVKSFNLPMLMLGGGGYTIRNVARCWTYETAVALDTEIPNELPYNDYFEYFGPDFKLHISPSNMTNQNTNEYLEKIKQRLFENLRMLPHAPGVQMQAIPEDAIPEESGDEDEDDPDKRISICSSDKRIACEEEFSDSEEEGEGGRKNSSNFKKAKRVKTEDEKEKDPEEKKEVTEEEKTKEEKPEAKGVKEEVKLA
# Chain of CYP450 3A4 (P08684 whole entry): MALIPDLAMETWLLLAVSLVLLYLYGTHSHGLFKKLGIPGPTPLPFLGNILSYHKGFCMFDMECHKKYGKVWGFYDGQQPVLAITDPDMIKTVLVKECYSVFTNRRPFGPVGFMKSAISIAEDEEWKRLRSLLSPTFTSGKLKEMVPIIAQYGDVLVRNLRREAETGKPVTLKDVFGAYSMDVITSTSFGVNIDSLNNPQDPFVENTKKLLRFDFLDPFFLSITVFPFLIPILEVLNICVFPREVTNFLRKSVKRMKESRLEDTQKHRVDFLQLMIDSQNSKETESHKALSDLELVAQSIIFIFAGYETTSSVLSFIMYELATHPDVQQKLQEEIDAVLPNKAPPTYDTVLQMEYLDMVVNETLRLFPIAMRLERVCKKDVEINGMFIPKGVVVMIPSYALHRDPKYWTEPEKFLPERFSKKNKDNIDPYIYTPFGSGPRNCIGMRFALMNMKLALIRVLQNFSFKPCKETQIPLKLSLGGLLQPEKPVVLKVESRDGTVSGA
# T6 sequence (P10635 whole entry): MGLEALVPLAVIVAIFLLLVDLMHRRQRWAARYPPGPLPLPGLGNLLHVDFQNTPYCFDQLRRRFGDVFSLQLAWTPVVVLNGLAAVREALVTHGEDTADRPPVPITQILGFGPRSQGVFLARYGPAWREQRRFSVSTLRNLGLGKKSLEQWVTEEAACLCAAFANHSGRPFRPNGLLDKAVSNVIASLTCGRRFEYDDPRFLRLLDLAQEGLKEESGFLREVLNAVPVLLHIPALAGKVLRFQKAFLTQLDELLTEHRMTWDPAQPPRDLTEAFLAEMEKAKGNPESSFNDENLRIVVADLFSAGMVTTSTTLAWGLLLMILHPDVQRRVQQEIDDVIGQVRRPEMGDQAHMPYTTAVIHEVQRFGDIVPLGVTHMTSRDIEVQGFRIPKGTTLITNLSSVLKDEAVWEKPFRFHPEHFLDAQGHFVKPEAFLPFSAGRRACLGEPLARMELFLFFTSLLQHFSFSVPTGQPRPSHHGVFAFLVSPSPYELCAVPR
# T5 sequence (P11712 whole entry): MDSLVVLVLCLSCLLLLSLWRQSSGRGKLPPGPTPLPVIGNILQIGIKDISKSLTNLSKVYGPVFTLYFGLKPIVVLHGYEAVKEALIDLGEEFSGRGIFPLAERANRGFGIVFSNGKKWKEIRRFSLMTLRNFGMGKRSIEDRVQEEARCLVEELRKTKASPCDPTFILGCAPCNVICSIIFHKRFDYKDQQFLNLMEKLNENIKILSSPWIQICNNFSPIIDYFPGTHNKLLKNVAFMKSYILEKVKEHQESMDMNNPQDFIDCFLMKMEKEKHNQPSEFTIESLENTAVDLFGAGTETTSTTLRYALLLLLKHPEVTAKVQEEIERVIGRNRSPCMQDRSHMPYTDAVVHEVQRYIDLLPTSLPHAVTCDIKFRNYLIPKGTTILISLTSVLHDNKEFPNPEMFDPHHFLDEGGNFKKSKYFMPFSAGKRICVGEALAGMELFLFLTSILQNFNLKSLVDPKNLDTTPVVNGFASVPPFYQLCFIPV
structure (smiles),measurement,setting,value
"O=C(/C=C/c1ccc(NC(=O)Nc2ccccc2)cc1)NO [Compound 6a, (E)-N-hydroxy-3-(4-(3-phenylureido)phenyl)acrylamide]",IC50,P. falciparum 3D7,1720 nM
same,IC50,HepG2 cells,22900 nM
same,IC50,human HDAC1,1350 ± 64.2 nM
same,IC50,human HDAC6,12.4 ± 0.7 nM
same,HDAC1/6 SI,human HDAC6,109
same,IC50,HDAC8,95.1 ± 4.6 nM
same,melting point,,202 to 204 °C
same,IC50,Jurkat,160 nM
same,IC50,Namalwa,300 nM
"O=C(CCc1ccc(NC(=O)Nc2ccccc2)cc1)NO [Compound 7a, N-hydroxy-3-(4-(3-phenylureido)phenyl)propanamide]",IC50,P. falciparum 3D7,4570 nM
same,IC50,HepG2 cells,> 50000 nM
same,IC50,human HDAC1,4890 ± 210 nM
same,IC50,human HDAC6,152 ± 11.6 nM
same,HDAC1/6 SI,human HDAC6,32
same,IC50,HDAC8,462 ± 27.6 nM
same,melting point,,304 °C (dec.)
same,IC50,Jurkat,1590 nM
same,IC50,Namalwa,780 nM
Cl.O=C(NO)c1ccc(Cn2cc(-c3ccc(CN4CCCC4)cc3)nn2)cc1 [FNDR-20123],Half-life t1/2,[1],2 to 9.21 h
same,IC50 against P. falciparum culture,P. falciparum culture,low nanomolar range
"Nc1ccc(S(=O)(=O)Nc2ccnn2-c2ccccc2)cc1 [Sulfaphenazole, reference compound]",CYP450% inhibition @ 10 µM 1A2,CYP1A2,* (Inhibition < 10%)
same,CYP450% inhibition @ 10 µM 2C9,CYP450 2C9,94%
same,CYP450% inhibition @ 10 µM 2D6,CYP450 2D6,* (Inhibition < 10%)
same,CYP450% inhibition @ 10 µM 3A4,CYP450 3A4,* (Inhibition < 10%)
